# Measured values taken from patent US20230364070A1, “PYRROLO[3,2-C]PYRIDIN-4-ONE DERIVATIVES USEFUL IN THE TREATMENT OF CANCER” (Scorpion Therapeutics, Inc., priority 2020, published 2023).
# Key:
# Assay type in all cases: cell-based
# [1] = biological target: T1, pEGFR in Ba/F3 cells expressing EGFR exon 20 NPG Ins D770_N771 (Homo sapiens, UniProt P00533, INS770NPG); test: Inhibitor activity on EGFR phosphorylation (pEGFR AlphaLISA, 2 h), Ba/F3 EGFR exon 20 NPG insertion; conditions: Ba/F3 EGFR exon 20 NPG Ins D770_N771
# T1 construct: expressed in transfected cells; host or cells: Ba/F3 (murine pro-B cells), retroviral transduction, puromycin selection, IL3-independent pool
# pEGFR in CUTO14 cells = biological target: T2, pEGFR in CUTO14 cells (Homo sapiens, UniProt P00533, DUP767-769); test: Inhibitor activity on EGFR phosphorylation (pEGFR AlphaLISA, 2 h), CUTO14 cells
# T2 construct: endogenous in cells; host or cells: CUTO14 cells
# Experimental: CUTO14 cells were obtained from Dr. Robert C. Doebele at the University of Colorado.
# Shake 350 rpm for 1 hr in the dark • 3.4 Prepare donor mix under low light conditions prior to use. Dispense 5 μL of donor mix to all the wells. Mix well on the shaker, seal and wrap in aluminum foil and incubate 1.5 hrs at room temperature in the dark • 3.5 Transfer 18.5 μL mixture to OptiPlate 384, and read using an Envision.
# [2] = biological target: T3, pEGFR in Ba/F3 cells expressing EGFR exon 20 ASV Ins V769_D770 (Homo sapiens, UniProt P00533, INS769ASV); test: Inhibitor activity on EGFR phosphorylation (pEGFR AlphaLISA, 2 h), Ba/F3 EGFR exon 20 ASV insertion; conditions: Ba/F3 EGFR exon 20 ASV Ins V769_D770
# T3 construct: expressed in transfected cells; host or cells: Ba/F3 (murine pro-B cells), retroviral transduction, puromycin selection, IL3-independent pool
# Ba/F3 cells with EGFR WT = biological target: T4, Ba/F3 cells with EGFR WT (Homo sapiens, UniProt P00533); test: EGFR activity: Ba/F3 cell viability (CellTiter-Glo, 72 h), EGFR WT; conditions: read-out: BaF3 WT IC50
# T4 construct: expressed in transfected cells; host or cells: Ba/F3 (murine pro-B cells), retroviral transduction, puromycin selection, maintained with EGF
# [3] = biological target: T5, Ba/F3 cells with EGFR exon 20 ASV Ins V769_D770 (Homo sapiens, UniProt P00533, INS769ASV); test: EGFR activity: Ba/F3 cell viability (CellTiter-Glo, 72 h), EGFR exon 20 ASV insertion; conditions: EGFR exon 20 ASV Ins V769_D770, cell viability, read-out: BaF3 ASV IC50
# T5 construct: expressed in transfected cells; host or cells: Ba/F3 (murine pro-B cells), retroviral transduction, puromycin selection, IL3-independent pool
# [4] = biological target: T6, Ba/F3 cells with EGFR exon 20 NPG Ins D770_N771 (Homo sapiens, UniProt P00533, INS770NPG); test: EGFR activity: Ba/F3 cell viability (CellTiter-Glo, 72 h), EGFR exon 20 NPG insertion; conditions: EGFR exon 20 NPG Ins D770_N771, cell viability, read-out: BaF3 NPG IC50
# T6 construct: expressed in transfected cells; host or cells: Ba/F3 (murine pro-B cells), retroviral transduction, puromycin selection, IL3-independent pool
# T2 sequence (P00533 with tags, fused parts or gaps DUP767-769): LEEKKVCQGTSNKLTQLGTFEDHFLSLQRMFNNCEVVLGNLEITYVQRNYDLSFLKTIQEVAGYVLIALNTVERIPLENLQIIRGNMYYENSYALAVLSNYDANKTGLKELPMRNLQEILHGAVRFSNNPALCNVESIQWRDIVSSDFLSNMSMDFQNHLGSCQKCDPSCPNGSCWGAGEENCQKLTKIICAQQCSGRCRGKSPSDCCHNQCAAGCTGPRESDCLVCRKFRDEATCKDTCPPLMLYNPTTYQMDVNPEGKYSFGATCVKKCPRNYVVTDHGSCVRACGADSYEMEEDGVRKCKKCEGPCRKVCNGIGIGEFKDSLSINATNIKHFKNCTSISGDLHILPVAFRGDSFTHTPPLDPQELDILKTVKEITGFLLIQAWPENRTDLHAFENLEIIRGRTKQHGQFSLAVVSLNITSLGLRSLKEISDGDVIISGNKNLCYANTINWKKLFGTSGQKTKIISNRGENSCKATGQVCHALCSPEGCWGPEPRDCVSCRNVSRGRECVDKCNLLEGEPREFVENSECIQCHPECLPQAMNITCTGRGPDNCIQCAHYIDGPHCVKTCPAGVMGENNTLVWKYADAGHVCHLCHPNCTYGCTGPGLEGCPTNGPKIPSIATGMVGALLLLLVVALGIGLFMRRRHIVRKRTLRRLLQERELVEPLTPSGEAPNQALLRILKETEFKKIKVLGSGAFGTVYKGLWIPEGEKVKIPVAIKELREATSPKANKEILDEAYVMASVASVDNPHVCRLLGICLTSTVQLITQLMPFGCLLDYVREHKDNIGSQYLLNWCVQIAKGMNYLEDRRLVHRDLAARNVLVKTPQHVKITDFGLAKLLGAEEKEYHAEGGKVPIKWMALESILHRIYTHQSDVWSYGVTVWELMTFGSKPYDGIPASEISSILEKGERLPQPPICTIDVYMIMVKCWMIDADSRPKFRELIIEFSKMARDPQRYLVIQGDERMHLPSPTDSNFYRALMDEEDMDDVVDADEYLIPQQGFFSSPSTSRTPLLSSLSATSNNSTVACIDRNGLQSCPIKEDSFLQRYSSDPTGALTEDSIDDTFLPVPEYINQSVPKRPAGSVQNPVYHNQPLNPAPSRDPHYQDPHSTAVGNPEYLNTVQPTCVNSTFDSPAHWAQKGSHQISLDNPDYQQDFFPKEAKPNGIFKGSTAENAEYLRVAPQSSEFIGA
# T3 sequence (P00533 with tags, fused parts or gaps INS769ASV): as the sequence (P00533 with tags, fused parts or gaps DUP767-769) above
# T5 sequence (P00533 with tags, fused parts or gaps INS769ASV): as the sequence (P00533 with tags, fused parts or gaps DUP767-769) above
# T1 sequence (P00533 with tags, fused parts or gaps INS770NPG): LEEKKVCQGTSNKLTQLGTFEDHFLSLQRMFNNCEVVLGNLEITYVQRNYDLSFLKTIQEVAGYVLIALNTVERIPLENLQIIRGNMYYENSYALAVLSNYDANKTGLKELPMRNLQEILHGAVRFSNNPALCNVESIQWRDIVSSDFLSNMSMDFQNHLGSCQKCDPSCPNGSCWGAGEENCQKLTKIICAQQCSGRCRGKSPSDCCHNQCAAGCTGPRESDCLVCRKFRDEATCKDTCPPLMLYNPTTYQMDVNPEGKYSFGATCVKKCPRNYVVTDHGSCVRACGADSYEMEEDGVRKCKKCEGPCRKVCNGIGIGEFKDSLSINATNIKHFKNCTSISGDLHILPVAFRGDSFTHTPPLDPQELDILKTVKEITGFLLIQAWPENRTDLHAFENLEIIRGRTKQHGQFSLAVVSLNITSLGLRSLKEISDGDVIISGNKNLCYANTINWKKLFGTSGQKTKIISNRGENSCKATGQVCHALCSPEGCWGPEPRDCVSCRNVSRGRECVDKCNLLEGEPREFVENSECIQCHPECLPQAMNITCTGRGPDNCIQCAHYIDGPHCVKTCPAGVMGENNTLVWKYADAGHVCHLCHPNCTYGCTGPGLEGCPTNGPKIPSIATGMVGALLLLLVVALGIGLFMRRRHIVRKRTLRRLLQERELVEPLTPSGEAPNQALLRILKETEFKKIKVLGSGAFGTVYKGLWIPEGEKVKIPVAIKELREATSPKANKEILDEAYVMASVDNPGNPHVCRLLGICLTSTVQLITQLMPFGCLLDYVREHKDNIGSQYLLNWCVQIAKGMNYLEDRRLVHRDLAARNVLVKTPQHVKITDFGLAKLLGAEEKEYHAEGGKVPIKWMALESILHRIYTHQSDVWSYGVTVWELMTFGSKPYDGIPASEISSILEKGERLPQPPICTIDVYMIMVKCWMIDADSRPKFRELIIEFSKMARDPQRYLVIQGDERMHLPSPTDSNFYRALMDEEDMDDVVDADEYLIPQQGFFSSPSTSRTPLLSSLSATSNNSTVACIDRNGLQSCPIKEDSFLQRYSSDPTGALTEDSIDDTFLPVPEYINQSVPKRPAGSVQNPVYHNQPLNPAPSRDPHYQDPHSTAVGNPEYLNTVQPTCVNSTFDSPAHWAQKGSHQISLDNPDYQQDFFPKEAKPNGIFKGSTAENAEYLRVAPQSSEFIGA
Structure (SMILES),IC50 [1],IC50 (pEGFR in CUTO14 cells),IC50 [2],IC50 (Ba/F3 cells with EGFR WT),IC50 [3],IC50 [4]
"C=CC(=O)N1CC[C@H]1COc1cnccc1-c1[nH]c2c(c1Nc1cccc(Cl)c1OC)C(=O)NCC2 [145b, 3-[(3-chloro-2-methoxyphenyl)amino]-2-(3-[[(2S)-1-(prop-2-enoyl)azetidin-2-yl]methoxy]pyridin-4-yl)-1H,5H,6H,7H-pyrrolo[3,2-c]pyridin-4-one]",< 0.1 µM,< 0.1 µM,< 0.1 µM,–,–,–
"COc1c(F)cccc1Nc1c(-c2ccncc2OCC2CCn3ccnc32)[nH]c2c1C(=O)NCC2 (stereo not shown) [Compound 124, 3-[(3-fluoro-2-methoxyphenyl)amino]-2-(3-[5H,6H,7H-pyrrolo[1,2-a]imidazol-7-ylmethoxy]pyridin-4-yl)-1H,5H,6H,7H-pyrrolo[3,2-c]pyridin-4-one]",< 0.1 µM,–,0.1 to 1 µM,> 1 µM,0.1 to 1 µM,> 1 µM
"C=CC(=O)N1CCC[C@@H]1COc1cnccc1-c1[nH]c2c(c1Nc1cccc(F)c1C)C(=O)NCC2 [Compound 140, (R)-2-(3-((1-acryloylpyrrolidin-2-yl)methoxy)pyridin-4-yl)-3-((3-fluoro-2-methylphenyl)amino)-1,5,6,7-tetrahydro-4H-pyrrolo[3,2-c]pyridin-4-one]",< 0.1 µM,< 0.1 µM,< 0.1 µM,0.1 to 1 µM,< 0.1 µM,< 0.1 µM
"C=CC(=O)N1CC[C@@H]1COc1cnccc1-c1[nH]c2c(c1Nc1cccc(Cl)c1OC)C(=O)NCC2 [Compound 145a, (R)-2-(3-((1-acryloylazetidin-2-yl)methoxy)pyridin-4-yl)-3-((3-chloro-2-methoxyphenyl)amino)-1,5,6,7-tetrahydro-4H-pyrrolo[3,2-c]pyridin-4-one]",< 0.1 µM,< 0.1 µM,< 0.1 µM,0.1 to 1 µM,< 0.1 µM,< 0.1 µM
"C=CC(=O)N1CCC[C@H]1C#Cc1cnccc1-c1[nH]c2c(c1Nc1cccc(F)c1OC)C(=O)NCC2 [Compound 147a, (S)-2-(3-((1-acryloylpyrrolidin-2-yl)ethynyl)pyridin-4-yl)-3-((3-fluoro-2-methoxyphenyl)amino)-1,5,6,7-tetrahydro-4H-pyrrolo[3,2-c]pyridin-4-one]",< 0.1 µM,< 0.1 µM,< 0.1 µM,< 0.1 µM,< 0.1 µM,< 0.1 µM
"C=CC(=O)N1CCC[C@@H]1C#Cc1cnccc1-c1[nH]c2c(c1Nc1cccc(F)c1OC)C(=O)NCC2 [Compound 147b, (R)-2-(3-((1-acryloylpyrrolidin-2-yl)ethynyl)pyridin-4-yl)-3-((3-fluoro-2-methoxyphenyl)amino)-1,5,6,7-tetrahydro-4H-pyrrolo[3,2-c]pyridin-4-one]",< 0.1 µM,< 0.1 µM,< 0.1 µM,0.1 to 1 µM,< 0.1 µM,< 0.1 µM
"C=CC(=O)N1CCC[C@H]1COc1cnccc1-c1[nH]c2c(c1Nc1cccc(F)c1C)C(=O)NCC2 [Compound 467, 3-[(3-fluoro-2-methylphenyl)amino]-2-(3-[[(2S)-1-(prop-2-enoyl)pyrrolidin-2-yl]methoxy]pyridin-4-yl)-1H,5H,6H,7H-pyrrolo[3,2-c]pyridin-4-one]",< 0.1 µM,< 0.1 µM,< 0.1 µM,< 0.1 µM,< 0.1 µM,< 0.1 µM
"COc1c(F)cccc1Nc1c(-c2ccncc2OCc2cccn3ccnc23)[nH]c2c1C(=O)NCC2 [Compound 475, 3-[(3-fluoro-2-methoxyphenyl)amino]-2-(3-[imidazo[1,2-a]pyridin-8-ylmethoxy]pyridin-4-yl)-1H,5H,6H,7H-pyrrolo[3,2-c]pyridin-4-one]",< 0.1 µM,–,< 0.1 µM,0.1 to 1 µM,0.1 to 1 µM,0.1 to 1 µM
"COc1c(F)cccc1Nc1c(-c2ccncc2OCc2ncc(C)cn2)[nH]c2c1C(=O)NCC2 [Compound 477, 3-[(3-fluoro-2-methoxyphenyl)amino]-2-[3-[(5-methylpyrimidin-2-yl)methoxy]pyridin-4-yl]-1H,5H,6H,7H-pyrrolo[3,2-c]pyridin-4-one]",< 0.1 µM,–,< 0.1 µM,< 0.1 µM,–,< 0.1 µM

# Continued, in another order:
IC50 [1],IC50 (pEGFR in CUTO14 cells),IC50 [2],Structure (SMILES),IC50 (Ba/F3 cells with EGFR WT),IC50 [3],IC50 [4]
< 0.1 µM,–,< 0.1 µM,"COc1c(F)cccc1Nc1c(-c2ccncc2OCc2ccncn2)[nH]c2c1C(=O)NCC2 [Compound 478, 3-[(3-fluoro-2-methoxyphenyl)amino]-2-[3-(pyrimidin-4-ylmethoxy)pyridin-4-yl]-1H,5H,6H,7H-pyrrolo[3,2-c]pyridin-4-one]",0.1 to 1 µM,< 0.1 µM,< 0.1 µM
< 0.1 µM,–,0.1 to 1 µM,"COc1c(F)cccc1Nc1c(-c2ccncc2OCc2ccnn2C)[nH]c2c1C(=O)NCC2 [Compound 480, 3-[(3-fluoro-2-methoxyphenyl)amino]-2-[3-[(2-methylpyrazol-3-yl)methoxy]pyridin-4-yl]-1H,5H,6H,7H-pyrrolo[3,2-c]pyridin-4-one]",> 1 µM,> 1 µM,> 1 µM
–,–,< 0.1 µM,"COc1c(F)cccc1Nc1c(-c2ccncc2OCc2cn3ccccc3n2)[nH]c2c1C(=O)NCC2 [Compound 481, 3-[(3-fluoro-2-methoxyphenyl)amino]-2-(3-[imidazo[1,2-a]pyridin-2-ylmethoxy]pyridin-4-yl)-1H,5H,6H,7H-pyrrolo[3,2-c]pyridin-4-one]",0.1 to 1 µM,< 0.1 µM,> 1 µM
< 0.1 µM,–,< 0.1 µM,"COc1c(F)cccc1Nc1c(-c2ccncc2OCCc2ccco2)[nH]c2c1C(=O)NCC2 [Compound 483, 3-[(3-fluoro-2-methoxyphenyl)amino]-2-[3-[2-(furan-2-yl)ethoxy]pyridin-4-yl]-1H,5H,6H,7H-pyrrolo[3,2-c]pyridin-4-one]",0.1 to 1 µM,0.1 to 1 µM,< 0.1 µM
< 0.1 µM,< 0.1 µM,< 0.1 µM,"C=CC(=O)NC1(C#Cc2cnccc2-c2[nH]c3c(c2Nc2cccc(Cl)c2OC)C(=O)NCC3)CC1 [compound 207, N-{1-[2-(4-{3-[(3-chloro-2-methoxyphenyl)amino]-4-oxo-1H,5H,6H,7H-pyrrolo[3,2-c]pyridin-2-yl}pyridin-3-yl)ethynyl]cyclopropyl}prop-2-enamide]",–,–,–
–,–,< 0.1 µM,COc1c(Cl)cccc1Nc1c(-c2ccncc2C#CC2CC2)[nH]c2c1C(=O)NCC2 [compound 488],0.1 to 1 µM,< 0.1 µM,< 0.1 µM
< 0.1 µM,< 0.1 µM,< 0.1 µM,"C=CC(=O)N1CC(F)(F)C[C@@H]1C#Cc1cnccc1-c1[nH]c2c(c1Nc1cccc(Cl)c1OC)C(=O)NCC2 [compound 519, 3-[(3-chloro-2-methoxyphenyl)amino]-2-(3-[2-[(2R)-4,4-difluoro-1-(prop-2-enoyl)pyrrolidin-2-yl]ethynyl]pyridin-4-yl)-1H,5H,6H,7H-pyrrolo[3,2-c]pyridin-4-one]",–,–,–
< 0.1 µM,< 0.1 µM,< 0.1 µM,"COc1c(Cl)cccc1Nc1c(-c2ccncc2C#CC2(C(F)(F)F)CC2)[nH]c2c1C(=O)NCC2 [compound 528, 3-[(3-chloro-2-methoxyphenyl)amino]-2-(3-[2-[1-(trifluoromethyl)cyclopropyl]ethynyl]pyridin-4-yl)-1H,5H,6H,7H-pyrrolo[3,2-c]pyridin-4-one]",–,–,–
< 0.1 µM,< 0.1 µM,< 0.1 µM,COc1c(Cl)cccc1Nc1c(-c2ccncc2C#CC2(C(F)F)CC2)[nH]c2c1C(=O)NCC2 [compound 546],0.1 to 1 µM,< 0.1 µM,< 0.1 µM
